The results in this text go back to US6337394B2, “Compounds” (AstraZeneca AB, priority 1997, dated 2002).

For this assay, the target named is T1, Human thrombin (Homo sapiens, UniProt P00734).
T1 construct: purchased Sigma Chem. Co. T 6769
The assay is described as follows: Determination of Thrombin Clotting Time (TT), Test A. It is filed as biochemical. The conditions noted are these: concentration of inhibitor that doubles the thrombin clotting time for human plasma; pooled normal citrated human plasma, pH 7.4. On the procedure:
Determination of Thrombin Clotting Time (TT)
Human thrombin (T 6769, Sigma Chem. Co.) in buffer solution, pH 7.4, 100 μL, and inhibitor solution, 100 μL, were incubated for one min. Pooled normal citrated human plasma, 100 μL, was then added and the clotting time measured in an automatic device (KC 10, Amelumg).
The clotting time in seconds was plotted against the inhibitor concentration, and the IC50TT was determined by interpolation.
IC50TT is the concentration of inhibitor in the test that doubles the thrombin clotting time for human plasma.

Broadly, the IC50 is the concentration needed to halve the response being measured. In turn, `COc1ccc(OC)c(C(CO)C(=O)N2CCCC2C(=O)NCc2ccc(C(=N)N)cc2C)c1` (single isomer, unassigned) [Example 2, (2,5-diMeO)Ph—(R or S)CH(CH2OH)—CO-Pro-Pab(2-Me)×HOAc] registered an IC50 of less than 300 nM.
